The values below come from US20150374709A1, “TETRA-SUBSTITUTED NDGA DERIVATIVES VIA ETHER BONDS AND CARBAMATE BONDS AND THEIR SYNTHESIS AND PHARMACEUTICAL USE” (ERIMOS PHARMACEUTICALS LLC, priority 2006, published 2015).

pEC50, pIC50: −log10 of the molar value.

Test [1] concerns A549 (lung carcinoma). In words: MTS cell viability assay, A549. It is filed as cell-based. As to conditions: Homo sapiens, A549; MTS assay; read-out: A549 IC50.
The subject of test [2] is TAT-mediated transactivation of HIV transcription (HIV-1 LTR promoter). In words: SEAP assay of TAT-mediated transactivation (antiviral activity). The test is classed as cell-based, human immunodeficiency virus (HIV). The conditions noted are these: Human immunodeficiency virus 1, COS-7, 48 h, read-out: SEAP EC50. The procedure: Antiviral activity is determined using a SEAP (SEcreted Alkaline Phosphatase) assay, in which cells are co-transfected with SEAP and TAT plasmids. TAT is a transactivator, human immunodeficiency virus (HIV) gene expression and is one of the two or more necessary viral regulatory factors (TAT and REV) for HIV gene expression. TAT acts iv binding to the TAR RNA element and activating transcription from the long terminal repeat (LTR) promoter. […] Previous studies have shown that TAT mediates reduction of antibody-dependent T cell proliferation, contributing substantially to the failure of the immune response. TAT also directly stimulates Kaposi's cell growth.
Since TAT has no apparent cellular homologs, this strong positive regulator has become an attractive target for the development of anti-AIDS drugs. In contrast to currently available HIV reverse transcriptase inhibitors (AZT, DDI) or potential protease inhibitors that prevent new rounds of infection, an inhibitor which suppresses viral gene TAT regulated expression of integrated proviral DNA will arrest the virus at an early stage (Hsu et al., Science 254:1799-1802, 1991). Efforts aimed at the elucidation of factors which control gene expression at transcriptional and post-transcriptional levels in host eukaryotes have recently made possible quantitative assessment of TAT function (Sim, Ann. N.Y. Acad. Sci. 616: 64-70, 1990). To screen for inhibitors for TAT regulated transactivation (TAT-TRS), the SEAP reporter gene is put under the control of HIV-1 LTR promoter in the plasmid pBC12/HIV/SEAP. The TAT-coded activity is supplied by a second plasmid construct pBC12/CMV/t2. Transient co-transfection of COS-7 cells with these two plasmids leads to secretion of alkaline phosphatase into the culture medium which is analyzed by a simple colorimetric assay (Berger et al., Gene 66: 1-10, 1988). […]
In the SEAP assay, an inhibitor should cause reduction of SEAP reporter gene expression via transactivation of the HIV-1 LTR promoter by TAT protein (TAT-TRS). […] SEAP is detected colorimetrically by the para-nitrophenyl phosphate substrate at 405 nm. […] The cells are analyzed by the MTT assay to compare cytotoxicity to SEAP inhibition. […]
COS-7 (green monkey kidney) cells were co-transfected using Fugene 6 reagent (Roche Applied Science, Cat. No. 11815091001, Indianapolis, Ind., USA) with two plasmids: pHIVSEAP (SEAP expression vector under the control of the HIV LTR promoter) and pCTAT (HIV TAT transcription factor expression vector under the control of a CMV (cytomegalovirus) promoter). After test compound treatment for 48 hours, samples were analyzed for […] at 405 nm after addition of the p-nitrophenyl phosphate substrate. The percentage of SEAP activity inhibition was calculated in relation to the placebo control.

Turning to `C[C@H](Cc1ccc(OCCCN2CCCCC2)c(OCCCN2CCCCC2)c1)[C@@H](C)Cc1ccc(OCCCN2CCCCC2)c(OCCCN2CCCCC2)c1` [Compound A, 1,4-bis{3,4-bis[3-(piperidin-1-yl)propoxy]phenyl}-2,3-dimethyl-(2R,3S)-butane], the pIC50 (commonly −log10 of the IC50, conventionally taken in molar units) in test [1] was 6.05 to 6.10. Moreover, the pEC50 – broadly, the negative decadic logarithm of the EC50, by convention in mol/L – in test [2] is 6.00 to 6.30.
